Patent US20260042755A1, “GPR6 INVERSE AGONISTS” (MapLight Therapeutics, Inc., priority 2022, published 2026)

Experiments:
GPR6 = target: T1, GPR6 (Homo sapiens, UniProt P46095); assay: GPR6 antagonist functional cAMP assay (LANCE Ultra cAMP TR-FRET, CHO cells stably expressing GPR6); type: cell-based; settings: CHO cells stably expressing GPR6, cAMP assay
T1 construct: expressed in transfected cells; host or cells: CHO cells
How it was run: (§1)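 Suspended cells were plated at 10,000 per well in Krebs-Ringer bicarbonate buffer containing 0.1% BSA and 150 μM Ro 20-1724, then treated with compounds for 45 min at 37 °C. Intracellular cAMP was then quantified by TR-FRET immunoassay.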

GPR3 = target: T2, GPR3 (Homo sapiens, UniProt P46089); assay: GPR3 antagonist functional cAMP assay (LANCE Ultra cAMP TR-FRET, CHO cells stably expressing GPR3); type: cell-based; settings: CHO cells stably expressing GPR3, cAMP assay
T2 construct: expressed in transfected cells; host or cells: CHO cells
How it was run: as §1

T1 sequence (P46095 whole entry): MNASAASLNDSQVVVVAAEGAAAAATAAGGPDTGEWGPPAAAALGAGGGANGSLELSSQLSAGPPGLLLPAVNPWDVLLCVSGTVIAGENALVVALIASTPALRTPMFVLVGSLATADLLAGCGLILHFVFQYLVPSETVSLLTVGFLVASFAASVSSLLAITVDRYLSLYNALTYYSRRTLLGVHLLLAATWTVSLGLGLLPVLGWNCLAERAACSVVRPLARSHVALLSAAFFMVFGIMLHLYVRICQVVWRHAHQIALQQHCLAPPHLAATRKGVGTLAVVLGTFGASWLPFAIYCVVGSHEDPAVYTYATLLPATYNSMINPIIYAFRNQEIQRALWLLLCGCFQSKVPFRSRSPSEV
T2 sequence (P46089 whole entry, species assumed): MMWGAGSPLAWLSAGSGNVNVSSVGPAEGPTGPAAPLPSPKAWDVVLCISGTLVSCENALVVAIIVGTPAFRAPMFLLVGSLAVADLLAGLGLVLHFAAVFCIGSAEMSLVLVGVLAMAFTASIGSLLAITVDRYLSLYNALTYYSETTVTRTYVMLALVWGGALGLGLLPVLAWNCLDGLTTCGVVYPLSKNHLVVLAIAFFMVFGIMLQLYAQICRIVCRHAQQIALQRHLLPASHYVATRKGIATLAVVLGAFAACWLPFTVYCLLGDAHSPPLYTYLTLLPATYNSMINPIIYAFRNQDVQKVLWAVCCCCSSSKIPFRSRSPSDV

Row | IC50 (GPR6) | IC50 (GPR3) | Structure (SMILES)
1 | 1 to 30 µM | 1 to 30 µM | CC(=O)N1CCc2nc(N3CCN(Cc4ccncc4)CC3)c(-c3cnn(C)c3)nc2C1 [Compound 518, 1-[3-(1-methyl-4-pyrazolyl)-2-{4-[(4-pyridyl)methyl]-1-piperazinyl}-5,6,7,8-tetrahydro-1,4,6-triaza-6-naphthyl]-1-ethanone]
2 | 0.1 to 1 µM | 1 to 30 µM | CCn1cc(-c2nc3c(nc2N2CCC(Oc4ccc(F)cc4F)CC2)CCN(C(=O)C(C)(O)CO)C3)cn1 (stereo not drawn) [Compound 519, 1-{2-[4-(2,4-difluorophenoxy)-1-piperidyl]-3-(1-ethyl-4-pyrazolyl)-5,6,7,8-tetrahydro-1,4,6-triaza-6-naphthyl}-2,3-dihydroxy-2-methyl-1-propanone]
3 | 1 to 30 µM | 1 to 30 µM | COC1CCC(c2nc3c(nc2N2CCC(Oc4ccc(F)cc4F)CC2)CCN(C(=O)CO)C3)CC1 (stereo not drawn) [Compound 520, 1-{2-[4-(2,4-difluorophenoxy)-1-piperidyl]-3-(4-methoxycyclohexyl)-5,6,7,8-tetrahydro-1,4,6-triaza-6-naphthyl}-2-hydroxy-1-ethanone]
4 | 0.1 to 1 µM | 1 to 30 µM | CCn1cc(-c2nc3c(nc2N2CCC(Oc4ccc(F)cc4F)CC2)CCN(C(=O)C(O)C(C)(C)O)C3)cn1 (stereo not drawn) [Compound 521, 1-{2-[4-(2,4-difluorophenoxy)-1-piperidyl]-3-(1-ethyl-4-pyrazolyl)-5,6,7,8-tetrahydro-1,4,6-triaza-6-naphthyl}-2,3-dihydroxy-3-methyl-1-butanone]
5 | 1 to 30 µM | 1 to 30 µM | CC(=O)N1CCc2nc(N3CCC(Cn4ccccc4=O)CC3)c(-c3cnn(C)c3)nc2C1 [Compound 522, 1-({1-[6-acetyl-3-(1-methyl-4-pyrazolyl)-5,6,7,8-tetrahydro-1,4,6-triaza-2-naphthyl]-4-piperidyl}methyl)-2(1H)-pyridinone]
6 | ≥ 30 µM | ≥ 30 µM | CC(=O)N1CCc2nc(N3CCN(C(O)c4cocn4)CC3)c(-c3cnn(C)c3)nc2C1 (stereo not drawn) [Compound 523, 1-(2-{4-[hydroxy(1,3-oxazol-4-yl)methyl]-1-piperazinyl}-3-(1-methyl-4-pyrazolyl)-5,6,7,8-tetrahydro-1,4,6-triaza-6-naphthyl)-1-ethanone]
7 | ≥ 30 µM | ≥ 30 µM | CC(=O)N1CCc2nc(N3CCN(Cc4ccn[nH]4)CC3)c(-c3cnn(C)c3)nc2C1 [Compound 524, 1-[3-(1-methyl-4-pyrazolyl)-2-{4-[(5-pyrazolyl)methyl]-1-piperazinyl}-5,6,7,8-tetrahydro-1,4,6-triaza-6-naphthyl]-1-ethanone]
8 | ≥ 30 µM | ≥ 30 µM | CC(=O)N1CCc2nc(N3CCN(Cc4ccnn4C)CC3)c(-c3cnn(C)c3)nc2C1 [Compound 525, 1-[3-(1-methyl-4-pyrazolyl)-2-{4-[(1-methyl-5-pyrazolyl)methyl]-1-piperazinyl}-5,6,7,8-tetrahydro-1,4,6-triaza-6-naphthyl]-1-ethanone]
9 | ≥ 30 µM | 0.1 to 1 µM | CC(=O)N1CCc2nc(N3CCN(Cc4cnn(C)c4)CC3)c(-c3cnn(C)c3)nc2C1 [Compound 526, 1-[3-(1-methyl-4-pyrazolyl)-2-{4-[(1-methyl-4-pyrazolyl)methyl]-1-piperazinyl}-5,6,7,8-tetrahydro-1,4,6-triaza-6-naphthyl]-1-ethanone]
10 | ≥ 30 µM | ≥ 30 µM | CC(=O)N1CCc2nc(N3CCN(Cc4cn(C)cn4)CC3)c(-c3cnn(C)c3)nc2C1 [Compound 528, 1-(2-{4-[(1-methyl-4-imidazolyl)methyl]-1-piperazinyl}-3-(1-methyl-4-pyrazolyl)-5,6,7,8-tetrahydro-1,4,6-triaza-6-naphthyl)-1-ethanone]
11 | 1 to 30 µM | ≥ 30 µM | CC(=O)N1CCc2nc(N3CCN(Cc4ccoc4)CC3)c(-c3cnn(C)c3)nc2C1 [Compound 529, 1-(2-{4-[(3-furyl)methyl]-1-piperazinyl}-3-(1-methyl-4-pyrazolyl)-5,6,7,8-tetrahydro-1,4,6-triaza-6-naphthyl)-1-ethanone]
12 | ≥ 30 µM | ≥ 30 µM | CC(=O)N1CCc2nc(N3CCN(Cc4cccc(=O)[nH]4)CC3)c(-c3cnn(C)c3)nc2C1 [Compound 530, 6-({4-[6-acetyl-3-(1-methyl-4-pyrazolyl)-5,6,7,8-tetrahydro-1,4,6-triaza-2-naphthyl]-1-piperazinyl}methyl)-2(1H)-pyridinone]
13 | ≥ 30 µM | ≥ 30 µM | CC(=O)N1CCc2nc(N3CCN(Cc4ccc[nH]c4=O)CC3)c(-c3cnn(C)c3)nc2C1 [Compound 531, 3-({4-[6-acetyl-3-(1-methyl-4-pyrazolyl)-5,6,7,8-tetrahydro-1,4,6-triaza-2-naphthyl]-1-piperazinyl}methyl)-2(1H)-pyridinone]
14 | ≥ 30 µM | ≥ 30 µM | CC(=O)N1CCc2nc(N3CCN(Cc4ccc(=O)[nH]c4)CC3)c(-c3cnn(C)c3)nc2C1 [Compound 532, 5-({4-[6-acetyl-3-(1-methyl-4-pyrazolyl)-5,6,7,8-tetrahydro-1,4,6-triaza-2-naphthyl]-1-piperazinyl}methyl)-2(1H)-pyridinone]
15 | ≥ 30 µM | ≥ 30 µM | CC(=O)N1CCc2nc(N3CCN(Cc4cccc(=O)n4C)CC3)c(-c3cnn(C)c3)nc2C1 [Compound 533, 6-({4-[6-acetyl-3-(1-methyl-4-pyrazolyl)-5,6,7,8-tetrahydro-1,4,6-triaza-2-naphthyl]-1-piperazinyl}methyl)-1-methyl-2(1H)-pyridinone]
16 | ≥ 30 µM | ≥ 30 µM | CC(=O)N1CCc2nc(N3CCN(Cc4cccn(C)c4=O)CC3)c(-c3cnn(C)c3)nc2C1 [Compound 534, 3-({4-[6-acetyl-3-(1-methyl-4-pyrazolyl)-5,6,7,8-tetrahydro-1,4,6-triaza-2-naphthyl]-1-piperazinyl}methyl)-1-methyl-2(1H)-pyridinone]
17 | ≥ 30 µM | ≥ 30 µM | CC(=O)N1CCc2nc(N3CCN(Cc4ccc(=O)n(C)c4)CC3)c(-c3cnn(C)c3)nc2C1 [Compound 535, 5-({4-[6-acetyl-3-(1-methyl-4-pyrazolyl)-5,6,7,8-tetrahydro-1,4,6-triaza-2-naphthyl]-1-piperazinyl}methyl)-1-methyl-2(1H)-pyridinone]
18 | ≥ 30 µM | ≥ 30 µM | CC(=O)N1CCc2nc(N3CCN(Cc4cn[nH]c4)CC3)c(-c3cnn(C)c3)nc2C1 [Compound 536, 1-[3-(1-methyl-4-pyrazolyl)-2-{4-[(4-pyrazolyl)methyl]-1-piperazinyl}-5,6,7,8-tetrahydro-1,4,6-triaza-6-naphthyl]-1-ethanone]
19 | 1 to 30 µM | 1 to 30 µM | CC(=O)N1CCc2nc(N3CCN(Cc4ccco4)CC3)c(-c3cnn(C)c3)nc2C1 [Compound 537, 1-[2-(4-furfuryl-1-piperazinyl)-3-(1-methyl-4-pyrazolyl)-5,6,7,8-tetrahydro-1,4,6-triaza-6-naphthyl]-1-ethanone]
20 | 0.1 to 1 µM | 1 to 30 µM | CC(=O)N1CCc2nc(N3CCN(C(=O)c4ccc(Cl)cc4)CC3)c(-c3cnn(C)c3)nc2C1 [Compound 538, 1-{2-[4-(p-chlorobenzoyl)-1-piperazinyl]-3-(1-methyl-4-pyrazolyl)-5,6,7,8-tetrahydro-1,4,6-triaza-6-naphthyl}-1-ethanone]
21 | 1 to 30 µM | 1 to 30 µM | CC(=O)N1CCc2nc(N3CCN(C(=O)c4ccc(Cl)c(C)c4)CC3)c(-c3cnn(C)c3)nc2C1 [Compound 539, 1-{2-[4-(4-chloro-3-toluoyl)-1-piperazinyl]-3-(1-methyl-4-pyrazolyl)-5,6,7,8-tetrahydro-1,4,6-triaza-6-naphthyl}-1-ethanone]
22 | < 0.1 µM | 1 to 30 µM | CC(=O)N1Cc2nc(-c3cnn(C)c3)c(N3CCC(Oc4ccc(F)cc4F)CC3)nc2C(C)C1 (stereo not drawn) [Compound 540, 1-{2-[4-(2,4-difluorophenoxy)-1-piperidyl]-8-methyl-3-(1-methyl-4-pyrazolyl)-5,6,7,8-tetrahydro-1,4,6-triaza-6-naphthyl}-1-ethanone]
23 | 0.1 to 1 µM | 1 to 30 µM | CC(=O)N1CCc2nc(N3CCC(C(=O)c4ccc(F)cc4F)CC3)c(-c3cnn(C)c3)nc2C1 [Compound 541, 1-{2-[4-(2,4-difluorobenzoyl)-1-piperidyl]-3-(1-methyl-4-pyrazolyl)-5,6,7,8-tetrahydro-1,4,6-triaza-6-naphthyl}-1-ethanone]
24 | < 0.1 µM | 0.1 to 1 µM | CC(=O)N1CCc2nc(N3CCC(=Cc4ccc(F)cc4F)CC3)c(-c3cnn(C)c3)nc2C1 [Compound 542, 1-(2-(4-(2,4-difluorobenzylidene)piperidin-1-yl)-3-(1-methyl-1H-pyrazol-4-yl)-7,8-dihydropyrido[3,4-b]pyrazin-6(5H)-yl)ethan-1-one]
25 | 1 to 30 µM | 1 to 30 µM | CC(=O)N1CCc2nc(N3CCC(Oc4ccc(F)cc4F)CC3)c(C3CCN(S(C)(=O)=O)C3)nc2C1 (stereo not drawn) [Compound 543, 1-{2-[4-(2,4-difluorophenoxy)-1-piperidyl]-3-(1-mesyl-3-pyrrolidinyl)-5,6,7,8-tetrahydro-1,4,6-triaza-6-naphthyl}-1-ethanone]
26 | 1 to 30 µM | 1 to 30 µM | CC(=O)N1CCc2nc(N3CCC(Oc4ccc(F)cc4F)CC3)c(C3CCN(C4COC4)C3)nc2C1 (stereo not drawn) [Compound 544, 1-{2-[4-(2,4-difluorophenoxy)-1-piperidyl]-3-[1-(3-oxetanyl)-3-pyrrolidinyl]-5,6,7,8-tetrahydro-1,4,6-triaza-6-naphthyl}-1-ethanone]
27 | 0.1 to 1 µM | 1 to 30 µM | CC(=O)N1CCc2nc(N3CCC(C(O)c4ccc(F)cc4F)CC3)c(-c3cnn(C)c3)nc2C1 (stereo not drawn) [Compound 545, 1-(2-{4-[(2,4-difluorophenyl)hydroxymethyl]-1-piperidyl}-3-(1-methyl-4-pyrazolyl)-5,6,7,8-tetrahydro-1,4,6-triaza-6-naphthyl)-1-ethanone]
